The source of these data is patent publication US11814392B2, “Chromenopyridine-based compounds and methods of making and use thereof” (Rosalind Franklin University of Medicine and Science, priority 2020, dated 2023).

The assay deals with T1, PMCT (Homo sapiens, UniProt Q86YT5).
T1 construct: expressed in transfected cells; host or cells: HEK293T cells transfected with pcDNA3.1(+)-SLC13A5 using PEI
Nature of the assay: PMCT inhibition, citrate transport assay of whole HEK293T cells. It counts as cell-based. To be noted: for dose-dependence of PMCT inhibition / PMCT Inhibition: HEK293T cells; for dose-dependence of PMCT inhibition: even at moderate concentrations (FIG. 1); for inhibition at 2.8 µM / inhibition at 28 µM / inhibition at 140 µM / inhibition at 280 µM: HEK-293T; for inhibition at 2.8 µM: read-out: PMCT Inhibition, Inhibitor Concentration 2.8 μM, HEK293T cells; for inhibition at 28 µM: read-out: PMCT Inhibition, Inhibitor Concentration 28 μM, HEK293T cells; for inhibition at 140 µM: read-out: PMCT Inhibition, Inhibitor Concentration 140 μM, HEK293T cells; for inhibition at 280 µM: read-out: PMCT Inhibition, Inhibitor Concentration 280 μM, HEK293T cells; for PMCT Inhibition: Inhibitor Concentration 280 μM, 280 µM.

T1 sequence (Q86YT5 whole entry): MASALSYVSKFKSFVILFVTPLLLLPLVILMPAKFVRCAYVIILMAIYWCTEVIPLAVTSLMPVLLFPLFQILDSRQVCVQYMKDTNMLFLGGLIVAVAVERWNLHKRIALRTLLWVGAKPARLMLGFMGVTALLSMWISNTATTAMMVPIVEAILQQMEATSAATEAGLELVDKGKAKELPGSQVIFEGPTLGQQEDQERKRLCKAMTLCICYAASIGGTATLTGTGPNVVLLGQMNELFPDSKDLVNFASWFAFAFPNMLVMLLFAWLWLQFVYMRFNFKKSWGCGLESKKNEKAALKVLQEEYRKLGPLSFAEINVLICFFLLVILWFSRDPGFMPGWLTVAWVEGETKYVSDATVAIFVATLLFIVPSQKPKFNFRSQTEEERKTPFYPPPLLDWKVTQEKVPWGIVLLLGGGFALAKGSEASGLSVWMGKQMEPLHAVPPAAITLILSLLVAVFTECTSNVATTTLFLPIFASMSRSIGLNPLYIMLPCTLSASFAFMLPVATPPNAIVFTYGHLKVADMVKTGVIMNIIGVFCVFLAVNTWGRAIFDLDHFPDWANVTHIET

Take `COc1ccc2c(c1)Oc1nc(N)c(C#N)c(N)c1C2Sc1ccc(O)cc1` (stereo not shown) [Compound 7, 2,4-Diamino-5-((4-hydroxyphenyl)thio)-8-methoxy-5H-chromeno[2,3-b]pyridine-3-carbonitrile]: the “dose-dependence of PMCT inhibition” value is reported as “dose-dependent inhibition”, the inhibition at 2.8 µM is 28%, the inhibition at 28 µM was -13.3% and the inhibition at 140 µM stood at 42.5%. For the same compound, the inhibition at 280 µM was determined as 62.9% and the “PMCT Inhibition” value came to 77.7%.
Regarding `CSc1ccc(SC2c3ccc(C)cc3Oc3nc(N)c(C#N)c(N)c32)cc1` (stereo not shown) [Compound 9, 2,4-Diamino-8-methyl-5-((4-(methylthio)phenyl)thio)-5H-chromeno[2,3-b]pyridine-3-carbonitrile], the inhibition at 2.8 µM was determined as 35.7%, the inhibition at 28 µM worked out at 1.8% and the inhibition at 280 µM worked out at 35.7%.
`CCN(CC)c1ccc2c(c1)Oc1nc(N)c(C#N)c(N)c1C2Sc1ccc(OC)cc1` (stereo not shown) [Compound 4, 2,4-diamino-8-(diethylamino)-5-((4-methoxyphenyl)thio)-5H-chromeno[2,3-b]pyridine-3-carbonitrile]: the inhibition at 2.8 µM was -23.2%, the inhibition at 28 µM came to 28.6% and the inhibition at 280 µM was -8.7%.
As for `COc1cc2c(cc1OC)C(Sc1ccc(SC)cc1)c1c(nc(N)c(C#N)c1N)O2` (stereo not shown) [Compound 6, 2,4-diamino-7,8-dimethoxy-5-((4-(methylthio)phenyl)thio)-5H-chromeno[2,3-b]pyridine-3-carbonitrile], the “dose-dependence of PMCT inhibition” value was “dose-dependent inhibition”, the inhibition at 2.8 µM is 9.4%, the inhibition at 28 µM was -45.9% and the inhibition at 140 µM was 46.8%. The inhibition at 280 µM worked out at 70.2% and the “PMCT Inhibition” value was found to be 87.4%.
Take `CSc1ccc(SC2c3ccc(O)cc3Oc3nc(N)c(C#N)c(N)c32)cc1` (stereo not shown) [Compound 3, 2,4-Diamino-8-hydroxy-5-((4-(methylthio)phenyl)thio)-5H-chromeno[2,3-b]pyridine-3-carbonitrile]: the “dose-dependence of PMCT inhibition” value is recorded as “dose-dependent inhibition”, the inhibition at 2.8 µM was 6.2%, the inhibition at 28 µM turned out to be 9.9% and the inhibition at 140 µM is 28.6%. The inhibition at 280 µM was 58.7%.
`CCN(CC)c1ccc2c(c1)Oc1nc(N)c(C#N)c(N)c1C2Sc1ccc(SC)cc1` (stereo not shown) [Compound 8, 2,4-diamino-8-(diethylamino)-5-((4-(methylthio)phenyl)thio)-5H-chromeno[2,3-b]pyridine-3-carbonitrile]: the inhibition at 2.8 µM is -41.5%, the inhibition at 28 µM was -1.5% and the inhibition at 280 µM is 58.4%.
For `COc1ccc(SC2c3ccc(O)cc3Oc3nc(N)c(C#N)c(N)c32)cc1` (stereo not shown) [Compound 5, 2,4-Diamino-8-hydroxy-5-((4-methoxyphenyl)thio)-5H-chromeno[2,3-b]pyridine-3-carbonitrile], in that order: -12.8%, -4.5% and -3.2%.
Regarding `COc1ccc(SC2c3c(OC)cc(OC)cc3Oc3nc(N)c(C#N)c(N)c32)cc1` (stereo not shown) [Compound 2, 2,4-diamino-6,8-dimethoxy-5-((4-methoxyphenyl)thio)-5H-chromeno[2,3-b]pyridine-3-carbonitrile], the “dose-dependence of PMCT inhibition” value is “dose-dependent inhibition”, the inhibition at 2.8 µM stood at 34.7%, the inhibition at 28 µM is 24% and the inhibition at 140 µM is 48.5%. Besides, the inhibition at 280 µM worked out at 50%.
